Results reported in US9474790B2, “Stable, protracted GLP-1/glucagon receptor co-agonists for medical use” (Novo Nordisk A/S, priority 2013, dated 2016).
Numbered stars: 1 amine (or outer) side, 2 acyl side, 3 side chain; on linkers, the order of the positions; unused ones are H or OH. Square brackets hold non-standard residues; d marks the D form. Side chains are listed from the residue outwards. Peptide text beside a SMILES is read from it. * marks the point of attachment. C18 diacid = O=C(O)CCCCCCCCCCCCCCCCC(=O)*; γGlu = O=C(O)[C@H](CCC(=O)[*:2])N[*:1]; AEEA = NCCOCCOCC(=O)O; Aib = CC(C)(N)C(=O)O

biological target: T1, human GLP-1 receptor (Homo sapiens, UniProt P43220); experiment: GLP-1 receptor potency, CRE luciferase reporter gene assay in BHK cells; assay type: cell-based; settings: BHK cells expressing human GLP-1 receptor, read-out: EC50 GLP-1R
T1 construct: expressed in transfected cells; host or cells: BHK cells (parent BHKTS13), clone FCW467-12A/KZ10-1, with CRE luciferase
Protocol: The purpose of this example was to test the potency, of the glucagon derivatives of the invention, in vitro. The in vitro potency is the measure of human GLP-1 receptor or glucagon receptor activation, respectively, in a whole cell assay.
In vitro potency was determined by measuring the response of human GLP-1 or glucagon receptor, respectively, in a reporter gene assay. The assay was performed in a stably transfected BHK cell line that expresses either the human GLP-1 receptor or the human glucagon receptor and contains the DNA for the cAMP response element (CRE) coupled to a promoter and the gene for firefly luciferase (CRE luciferase). […] When assay incubation was completed, the luciferase substrate (luciferin) was added and the enzyme converted luciferin to oxyluciferin and produces bioluminescence. The luminescence was measured as the readout for the assay.
The cells used in this assay (clone FCW467-12A/KZ10-1) were BHK cells with BHKTS13 as a parent cell line. The cells were derived from a clone (FCW467-12A) that expresses the human GLP-1 receptor and were established by further transfection with
CRE luciferase to obtain the current clone.
The cells were cultured at 5% CO2 in DMEM medium with 10% FBS, 1×GlutaMAX, 1 mg/ml G418, 240 nM MTX (methotrexate) and 1% pen/strep (penicillin/streptomycin). They were aliquoted and stored in liquid nitrogen. Before each assay, an aliquot was taken up and washed three times in PBS before being suspended at the desired concentration in assay medium. For 96-well plates the suspension was made to give a final concentration of 5×10EE3 cells/well.
The following chemicals were used in the assay: Pluronic F-68 (10%) (Gibco 2404), ovalbumin (Sigma A5503), DMEM w/o phenol red (Gibco 11880-028), 1 M Hepes (Gibco 15630), Glutamax 100× (Gibco 35050) and steadylite plus (PerkinElmer 6016757).
Assay Medium consisted of DMEM w/o phenol red, 10 mM Hepes, lx GlutaMAX, 2% Ovalbumin and 0.2% Pluronic F-68.
Cell stocks were thawed in a 37° C. water bath. Cells were washed three times in PBS. The cells were counted and adjusted to 5×10EE3 cells/50 μl (1×10EE5 cells/ml) in Assay Medium. A 50 μl aliquot of cells was transferred to each well in the assay plate.
Stocks of the test compounds and reference compounds were diluted to a concentration of […] in Assay Medium. Compounds were diluted 10-fold to give the following concentrations: 2×10EE-6 M, 2×10EE-7 M, 2×10EE-8 M; 2×10EE-9 M, 2×10EE-10 M, 2×10EE-11 M, 2×10EE-12 M and 2×10EE-13 M. For each compound a blank assay medium control was also included.
A 50 μl aliquot of compound or blank was transferred from the dilution plate to the assay plate. Compounds were tested at the following final concentrations: 1×10EE-6 M, 1×10EE-7 M, 1×10EE-8 M; 1×10EE-9 M, 1×10EE-10 M, 1×10EE-11 M and 1×10EE-12 M and 1×10EE-13 M.
The assay plate was incubated for 3 h in a 5% CO2 incubator at 37° C. The assay plate was removed from the incubator and allowed to stand at room temperature for 15 min. A 100 μl aliquot of steadylite plus reagent was added to each well of the assay plate (reagent is light sensitive). Each assay plate was covered with aluminum foil to protect it from light and shaken for 30 min at room temperature. Each assay plate was read in a Perkin Elmer TopCount NXT instrument.
The data from the TopCount instrument was transferred to GraphPad Prism software. The software performed a non-linear regression (log(agonist) vs response-Variable slope (four parameter)). EC50 values were calculated by the software and reported in pM.

T1 sequence (P43220 24-463): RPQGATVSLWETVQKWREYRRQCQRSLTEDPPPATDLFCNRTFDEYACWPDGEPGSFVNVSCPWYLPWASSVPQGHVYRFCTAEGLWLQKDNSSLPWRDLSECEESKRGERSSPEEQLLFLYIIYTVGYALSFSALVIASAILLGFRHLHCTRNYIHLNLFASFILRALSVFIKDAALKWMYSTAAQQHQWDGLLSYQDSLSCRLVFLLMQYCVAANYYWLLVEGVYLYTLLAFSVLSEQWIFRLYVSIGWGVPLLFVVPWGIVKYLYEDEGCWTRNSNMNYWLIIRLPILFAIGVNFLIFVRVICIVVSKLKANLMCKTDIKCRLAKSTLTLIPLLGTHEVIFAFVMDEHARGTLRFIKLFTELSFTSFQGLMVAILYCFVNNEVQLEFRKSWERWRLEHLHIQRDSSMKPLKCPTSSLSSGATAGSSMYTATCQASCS

Row | EC50 [nM] | Compound
1 | 0.005 | CC(C)C[C@H](NC(=O)[C@H](CC(C)C)NC(=O)[C@H](Cc1c[nH]c2ccccc12)NC(=O)[C@H](CCC(N)=O)NC(=O)[C@@H](NC(=O)[C@H](Cc1ccccc1)NC(=O)[C@H](CC(=O)O)NC(=O)[C@H](CCCNC(=N)N)NC(=O)[C@H](C)NC(=O)[C@H](CCCNC(=N)N)NC(=O)[C@H](CCCNC(=N)N)NC(=O)[C@H](CO)NC(=O)[C@H](CC(=O)O)NC(=O)[C@H](CC(C)C)NC(=O)[C@H](Cc1ccc(O)cc1)NC(=O)[C@H](CCCCN)NC(=O)[C@H](CO)NC(=O)[C@H](CC(C)C)NC(=O)[C@H](CC(=O)O)NC(=O)[C@H](CO)NC(=O)[C@@H](NC(=O)[C@H](Cc1ccccc1)NC(=O)[C@@H](NC(=O)CNC(=O)[C@H](CCC(N)=O)NC(=O)C(C)(C)NC(=O)[C@@H](N)Cc1c[nH]cn1)[C@@H](C)O)[C@@H](C)O)C(C)C)C(=O)N[C@@H](CO)C(=O)N[C@@H](CCCCNC(=O)CC[C@H](NC(=O)CC[C@H](NC(=O)COCCOCCNC(=O)COCCOCCNC(=O)CC[C@H](NC(=O)CCCCCCCCCCCCCCCCC(=O)O)C(=O)O)C(=O)O)C(=O)O)C(N)=O [Example 5, N^ε29-[(4S)-4-carboxy-4-[[(4S)-4-carboxy-4-[[2-[2-[2-[[2-[2-[2-[[(4S)-4-carboxy-4-(17-carboxyheptadecanoylamino)butanoyl]amino]ethoxy]ethoxy]acetyl]amino]ethoxy]ethoxy]acetyl]amino]butanoyl]amino]butanoyl]-[Aib2,Leu10,Arg20,Leu27,Ser28,Lys29]-Glucagon amide] (H-H[Aib]QGTFTSDLSKYLDSRRARDFVQWLLSK([γGlu-γGlu-AEEA-AEEA-γGlu-C18 diacid])-NH2; N-terminus assumed)
2 | 0.02 | CC(C)C[C@H](NC(=O)[C@H](Cc1ccc(O)cc1)NC(=O)[C@H](CCCCN)NC(=O)[C@H](CO)NC(=O)[C@H](CC(C)C)NC(=O)[C@H](CC(=O)O)NC(=O)[C@H](CO)NC(=O)[C@@H](NC(=O)[C@H](Cc1ccccc1)NC(=O)[C@@H](NC(=O)CNC(=O)[C@H](CCC(N)=O)NC(=O)C(C)(C)NC(=O)[C@@H](N)Cc1c[nH]cn1)[C@@H](C)O)[C@@H](C)O)C(=O)N[C@@H](CC(=O)O)C(=O)N[C@@H](CO)C(=O)N[C@@H](CCCNC(=N)N)C(=O)N[C@@H](CCCNC(=N)N)C(=O)N[C@@H](C)C(=O)N[C@@H](CCCNC(=N)N)C(=O)N[C@@H](CC(=O)O)C(=O)N[C@@H](Cc1ccccc1)C(=O)N[C@H](C(=O)N[C@@H](CCC(N)=O)C(=O)N[C@@H](Cc1c[nH]c2ccccc12)C(=O)N[C@@H](CC(C)C)C(=O)N[C@@H](CC(C)C)C(=O)N[C@@H](CO)C(=O)N[C@H](C(=O)N[C@@H](CCCCNC(=O)CC[C@H](NC(=O)CC[C@H](NC(=O)COCCOCCNC(=O)COCCOCCNC(=O)CC[C@H](NC(=O)CCCCCCCCCCCCCCCCC(=O)O)C(=O)O)C(=O)O)C(=O)O)C(N)=O)[C@@H](C)O)C(C)C [Example 6, N^α-([Aib2,Leu10,Arg20,Leu27,Ser28]-Glucagonyl)-N{Epsilon}[(4S)-4-carboxy-4-[[(4S)-4-carboxy-4-[[2-[2-[2-[[2-[2-[2-[[(4S)-4-carboxy-4-(17-carboxyheptadecanoylamino)butanoyl]amino]ethoxy]ethoxy]acetyl]amino]ethoxy]ethoxy]acetyl]amino]butanoyl]amino]butanoyl]Lys amide] (H-H[Aib]QGTFTSDLSKYLDSRRARDFVQWLLSTK([γGlu-γGlu-AEEA-AEEA-γGlu-C18 diacid])-NH2)
3 | 0.006 | CC(C)C[C@H](NC(=O)[C@H](CC(C)C)NC(=O)[C@H](Cc1c[nH]c2ccccc12)NC(=O)[C@H](CCC(N)=O)NC(=O)[C@@H](NC(=O)[C@H](Cc1ccccc1)NC(=O)[C@H](CC(=O)O)NC(=O)[C@H](CCCCN)NC(=O)[C@H](C)NC(=O)[C@H](CCCNC(=N)N)NC(=O)[C@H](CCCNC(=N)N)NC(=O)[C@H](CCC(=O)O)NC(=O)[C@H](CC(=O)O)NC(=O)[C@H](CC(C)C)NC(=O)[C@H](Cc1ccc(O)cc1)NC(=O)[C@H](CCCCN)NC(=O)[C@H](CO)NC(=O)[C@H](CC(C)C)NC(=O)[C@H](CC(=O)O)NC(=O)[C@H](CO)NC(=O)[C@@H](NC(=O)[C@H](Cc1ccccc1)NC(=O)[C@@H](NC(=O)CNC(=O)[C@H](CCC(N)=O)NC(=O)C(C)(C)NC(=O)[C@@H](N)Cc1c[nH]cn1)[C@@H](C)O)[C@@H](C)O)C(C)C)C(=O)N[C@@H](CO)C(=O)N[C@@H](CCCCNC(=O)CC[C@H](NC(=O)CC[C@H](NC(=O)COCCOCCNC(=O)COCCOCCNC(=O)CC[C@H](NC(=O)CCCCCCCCCCCCCCCCC(=O)O)C(=O)O)C(=O)O)C(=O)O)C(N)=O [Example 13, N^ε29-[(4S)-4-carboxy-4-[[(4S)-4-carboxy-4-[[2-[2-[2-[[2-[2-[2-[[(4S)-4-carboxy-4-(17-carboxyheptadecanoylamino)butanoyl]amino]ethoxy]ethoxy]acetyl]amino]ethoxy]ethoxy]acetyl]amino]butanoyl]amino]butanoyl]-[Aib2,Leu10,Glu16,Lys20,Leu27,Ser28,Lys29]-Glucagon amide] (H-H[Aib]QGTFTSDLSKYLDERRAKDFVQWLLSK([γGlu-γGlu-AEEA-AEEA-γGlu-C18 diacid])-NH2; N-terminus assumed)
4 | 0.02 | CC(C)C[C@H](NC(=O)[C@H](CC(C)C)NC(=O)[C@H](Cc1c[nH]c2ccccc12)NC(=O)[C@H](CCCNC(=N)N)NC(=O)[C@@H](NC(=O)[C@H](Cc1ccccc1)NC(=O)[C@H](CC(=O)O)NC(=O)[C@H](CCC(N)=O)NC(=O)[C@H](C)NC(=O)[C@H](CCCNC(=N)N)NC(=O)[C@H](CCCNC(=N)N)NC(=O)[C@@H](NC(=O)[C@H](CC(=O)O)NC(=O)[C@H](CC(C)C)NC(=O)[C@H](Cc1ccc(O)cc1)NC(=O)[C@H](CCCCN)NC(=O)[C@H](CO)NC(=O)[C@H](CC(C)C)NC(=O)[C@H](CC(=O)O)NC(=O)[C@H](CO)NC(=O)[C@@H](NC(=O)[C@H](Cc1ccccc1)NC(=O)[C@@H](NC(=O)CNC(=O)[C@H](CCC(N)=O)NC(=O)C(C)(C)NC(=O)[C@@H](N)Cc1c[nH]cn1)[C@@H](C)O)[C@@H](C)O)[C@@H](C)O)C(C)C)C(=O)N[C@@H](CO)C(=O)N[C@@H](CCCCNC(=O)CC[C@H](NC(=O)CC[C@H](NC(=O)COCCOCCNC(=O)COCCOCCNC(=O)CC[C@H](NC(=O)CCCCCCCCCCCCCCCCC(=O)O)C(=O)O)C(=O)O)C(=O)O)C(N)=O [Example 15, N^ε29-[(4S)-4-carboxy-4-[[(4S)-4-carboxy-4-[[2-[2-[2-[[2-[2-[2-[[(4S)-4-carboxy-4-(17-carboxyheptadecanoylamino)butanoyl]amino]ethoxy]ethoxy]acetyl]amino]ethoxy]ethoxy]acetyl]amino]butanoyl]amino]butanoyl]-[Aib2,Leu10,Thr16,Arg24,Leu27,Ser28,Lys29]-Glucagon amide] (H-H[Aib]QGTFTSDLSKYLDTRRAQDFVRWLLSK([γGlu-γGlu-AEEA-AEEA-γGlu-C18 diacid])-NH2; N-terminus assumed)
